Reference: US20120202690A1, “HERBICIDAL COMPOUNDS” (SYNGENTA LIMITED, priority 2009, published 2012)

Experiments:
Assay type in all cases: in vivo
[1] = tested on: Alopecurus myosuroides (ALOMY); assay: Pre-emergence biological efficacy, glasshouse, 1000 g/ha, evaluated after 13 days (100=total damage to plant; 0=no damage to plant); conditions: Alopecurus myosuroides, 312 h, rate 1,000 g/ha, read-out: Percentage damage caused to weed species, pre-emergence, ALOMY
Method: (§1) Seeds of Alopecurus myosuroides (ALOMY), Setaria faberi (SETFA), Echinochloa crus-galli (ECHCG), Solanum nigrum (SOLNI), Amaranthus retroflexus (AMARE) and Ipomoea hederaceae (IPOHE) were sown in standard soil in pots. […] The test plants were then grown under controlled conditions in the glasshouse (at 24/16° C., day/night; 14 hours light; 65% humidity) and watered twice daily. […]

[2] = tested on: Amaranthus retroflexus (AMARE); assay: as above; conditions: Amaranthus retroflexus, 312 h, rate 1,000 g/ha, read-out: Percentage damage caused to weed species, pre-emergence, AMARE
Method: as §1

[3] = tested on: Echinochloa crus-galli (ECHCG); assay: as above; conditions: Echinochloa crus-galli, 312 h, rate 1,000 g/ha, read-out: Percentage damage caused to weed species, pre-emergence, ECHCG
Method: as §1

[4] = tested on: Ipomoea hederaceae (IPOHE); assay: as above; conditions: Ipomoea, 312 h, rate 1,000 g/ha, read-out: Percentage damage caused to weed species, pre-emergence, IPOHE
Method: as §1

Setaria faberi (SETFA) [5] = assay: as above; conditions: Setaria faberi, 312 h, rate 1,000 g/ha, read-out: Percentage damage caused to weed species, pre-emergence, SETFA
Method: as §1

Solanum nigrum (SOLNI) [6] = assay: as above; conditions: Solanum nigrum, 312 h, rate 1,000 g/ha, read-out: Percentage damage caused to weed species, pre-emergence, SOLNI
Method: as §1

[7] = tested on: Alopecurus myosuroides (ALOMY); assay: Post-emergence biological efficacy, glasshouse, 500 or 1000 g/ha, evaluated after 13 days (100=total damage to plant; 0=no damage to plant); conditions: Alopecurus myosuroides, 312 h, rate 1,000 g/ha, read-out: Percentage damage caused to weed species, post-emergence, ALOMY
Method: as §1, with “Echinochloa […]),” for “Echinochloa crus-galli (ECHCG),”, “grown on” for “grown”, “in a” for “in the”

[8] = tested on: Amaranthus retroflexus (AMARE); assay: as above; conditions: Amaranthus retroflexus, 312 h, rate 1,000 g/ha, read-out: Percentage damage caused to weed species, post-emergence, AMARE
Method: as §1, with “Echinochloa […]),” for “Echinochloa crus-galli (ECHCG),”, “grown on” for “grown”, “in a” for “in the”

[9] = tested on: Echinochloa crusgaffi (ECHCG); assay: as above; conditions: Echinochloa, 312 h, rate 1,000 g/ha, read-out: Percentage damage caused to weed species, post-emergence, ECHCG
Method: as §1, with “Echinochloa […]),” for “Echinochloa crus-galli (ECHCG),”, “grown on” for “grown”, “in a” for “in the”

[10] = tested on: Ipomoea hederaceae (IPOHE); assay: as above; conditions: Ipomoea, 312 h, rate 1,000 g/ha, read-out: Percentage damage caused to weed species, post-emergence, IPOHE
Method: as §1, with “Echinochloa […]),” for “Echinochloa crus-galli (ECHCG),”, “grown on” for “grown”, “in a” for “in the”

Setaria faberi (SETFA) [11] = assay: as above; conditions: Setaria faberi, 312 h, rate 1,000 g/ha, read-out: Percentage damage caused to weed species, post-emergence, SETFA
Method: as §1, with “Echinochloa […]),” for “Echinochloa crus-galli (ECHCG),”, “grown on” for “grown”, “in a” for “in the”

Solanum nigrum (SOLNI) [12] = assay: as above; conditions: Solanum nigrum, 312 h, rate 1,000 g/ha, read-out: Percentage damage caused to weed species, post-emergence, SOLNI
Method: as §1, with “Echinochloa […]),” for “Echinochloa crus-galli (ECHCG),”, “grown on” for “grown”, “in a” for “in the”

| Compound | pest or weed control at 1000 g/ha [1] [%] | pest or weed control at 1000 g/ha [2] [%] | pest or weed control at 1000 g/ha [3] [%] | pest or weed control at 1000 g/ha [4] [%] | pest or weed control at 1000 g/ha (Setaria faberi (SETFA) [5]) [%] | pest or weed control at 1000 g/ha (Solanum nigrum (SOLNI) [6]) [%] | pest or weed control at 1000 g/ha [7] [%] | pest or weed control at 1000 g/ha [8] [%] | pest or weed control at 1000 g/ha [9] [%] | pest or weed control at 1000 g/ha [10] [%] | pest or weed control at 1000 g/ha (Setaria faberi (SETFA) [11]) [%] | pest or weed control at 1000 g/ha (Solanum nigrum (SOLNI) [12]) [%] |
| --- | --- | --- | --- | --- | --- | --- | --- | --- | --- | --- | --- | --- |
| Cc1c[nH]c2nc(C3CC3)nc(C(=O)O)c12 [Compound 1-3, 4-Carboxy-2-cyclopropyl-5-methyl-7H-pyrrolo[2,3-d]pyrimidine] | 0 | 50 | 0 | 100 | 10 | 20 | 0 | 100 | 0 | 50 | 0 | 80 |
| COC(=O)c1nc(C2CC2)nc2[nH]cc(C)c12 [Compound 1-4, 2-Cyclopropyl-4-methoxycarbonyl-5-methyl-7H-pyrrolo[2,3-d]pyrimidine] | 10 | 90 | 30 | 60 | 30 | 90 | 10 | 100 | 70 | 70 | 80 | 90 |
| COC(=O)c1nc(C2CC2)nc2[nH]c(C)cc12 [Compound 1-6, 2-cyclopropyl-4-methoxycarbonyl-6-methyl-7H-pyrrolo[2,3-d]pyrimidine] | 0 | 0 | 0 | 0 | 0 | 0 | 0 | 0 | 0 | 0 | 0 | 0 |
| COC(=O)c1nc(-c2ccc(Cl)c(F)c2)nc2[nH]cc(C)c12 [Compound 1-20, 2-(4-Chloro-3-fluorophenyl)-4-methoxycarbonyl-5-methyl-7H-pyrrolo[2,3-d]pyrimidine] | 0 | 50 | 0 | 0 | 0 | 0 | 0 | 70 | 0 | 60 | 0 | 70 |
| COC(=O)c1nc(-c2ccc(Cl)c(F)c2)nc2[nH]c(C)cc12 [Compound 1-22, 2-(4-Chloro-3-fluorophenyl)-4-methoxycarbonyl-6-methyl-7H-pyrrolo[2,3-d]pyrimidine] | 0 | 0 | 0 | 0 | 0 | 0 | 10 | 20 | 0 | 40 | 10 | 30 |
| COC(=O)c1nc(-c2ccc(Cl)c(F)c2)nc2[nH]c(C)c(C)c12 [Compound 1-24, 2-(4-chloro-3-fluorophenyl)-5,6-dimethyl-4-methoxycarbonyl-7H-pyrrolo[2,3-d]pyrimidine] | 0 | 0 | 0 | 0 | 0 | 0 | 0 | 10 | 0 | 20 | 0 | 50 |
| COc1c(Cl)ccc(-c2nc(C(=O)O)c3cc[nH]c3n2)c1F [Compound 1-61, 4-Carboxy-2-(4-chloro-2-fluoro-3-methoxyphenyl)-7H-pyrrolo[2,3-d]pyrimidine] | 0 | – | 0 | 0 | 0 | – | 10 | 100 | 20 | 70 | 40 | 70 |
| COc1c(Cl)ccc(-c2nc(C(=O)O)c3c(C)c[nH]c3n2)c1F [Compound 1-63, 4-carboxy-2-(4-chloro-2-fluoro-3-methoxyphenyl)-5-methyl-7H-pyrrolo[2,3-d]pyrimidine] | 30 | 70 | 20 | 80 | 10 | 90 | 40 | 100 | 60 | 70 | 60 | 100 |
| COC(=O)c1nc(-c2ccc(Cl)c(OC)c2F)nc2[nH]cc(C)c12 [Compound 1-64, 2-(4-chloro-2-fluoro-3-methoxyphenyl)-4-methoxycarbonyl-5-methyl-7H-pyrrolo[2,3-d]pyrimidine] | 20 | 100 | 30 | 100 | 10 | 70 | 20 | 100 | 70 | 70 | 70 | 80 |
| COc1c(Cl)ccc(-c2nc(C(=O)OCc3ccccc3)c3c(C)c[nH]c3n2)c1F [Compound 1-86, 4-Benzyloxycarbonyl-2-(4-chloro-2-fluoro-3-methoxyphenyl)-5-methyl-7H-pyrrolo[2,3-d]pyrimidine] | 0 | – | 0 | 0 | 0 | 10 | 0 | 40 | 0 | 30 | 10 | 60 |
| Cc1cc2c(C(=O)O)nc(-c3ccc(Cl)c(F)c3)nc2n1Cc1ccccc1[N+](=O)[O-] [Compound 8-21, 4-Carboxy-2-(4-chloro-3-fluorophenyl)-6-methyl-7-(2-nitrophenyl-methyl)-7H-pyrrolo[2,3-d]pyrimidine] | 0 | – | 0 | 0 | 20 | 0 | 10 | 0 | 0 | 10 | 0 | 20 |
| COC(=O)c1nc(-c2ccc(Cl)c(OC)c2F)cc2c1c(C)cn2C(C)=O [Compound 36-64, 6-(4-Chloro-2-fluoro-3-methoxyphenyl)-4-methoxycarbonyl-3-methyl-1-methylcarbonyl-1H-pyrrolo[3,2-c]pyridine] | 0 | – | 0 | 20 | 0 | 50 | 0 | 70 | 0 | 70 | 10 | 80 |
